Experimental data published in patent publication US10160747B2, “Compounds and methods for kinase modulation, and indications therefor” (Plexxikon Inc., priority 2016, dated 2018).

Tests used:
FLT3-ITD = target: T1, FLT3-ITD (Homo sapiens, UniProt P36888); test: FLT3-ITD recombinant enzyme kinase assay (AlphaScreen); assay type: biochemical; conditions: 8 pt; read-out: FLT3_ITD 8 pt: IC50
T1 sequence (P36888 1-993): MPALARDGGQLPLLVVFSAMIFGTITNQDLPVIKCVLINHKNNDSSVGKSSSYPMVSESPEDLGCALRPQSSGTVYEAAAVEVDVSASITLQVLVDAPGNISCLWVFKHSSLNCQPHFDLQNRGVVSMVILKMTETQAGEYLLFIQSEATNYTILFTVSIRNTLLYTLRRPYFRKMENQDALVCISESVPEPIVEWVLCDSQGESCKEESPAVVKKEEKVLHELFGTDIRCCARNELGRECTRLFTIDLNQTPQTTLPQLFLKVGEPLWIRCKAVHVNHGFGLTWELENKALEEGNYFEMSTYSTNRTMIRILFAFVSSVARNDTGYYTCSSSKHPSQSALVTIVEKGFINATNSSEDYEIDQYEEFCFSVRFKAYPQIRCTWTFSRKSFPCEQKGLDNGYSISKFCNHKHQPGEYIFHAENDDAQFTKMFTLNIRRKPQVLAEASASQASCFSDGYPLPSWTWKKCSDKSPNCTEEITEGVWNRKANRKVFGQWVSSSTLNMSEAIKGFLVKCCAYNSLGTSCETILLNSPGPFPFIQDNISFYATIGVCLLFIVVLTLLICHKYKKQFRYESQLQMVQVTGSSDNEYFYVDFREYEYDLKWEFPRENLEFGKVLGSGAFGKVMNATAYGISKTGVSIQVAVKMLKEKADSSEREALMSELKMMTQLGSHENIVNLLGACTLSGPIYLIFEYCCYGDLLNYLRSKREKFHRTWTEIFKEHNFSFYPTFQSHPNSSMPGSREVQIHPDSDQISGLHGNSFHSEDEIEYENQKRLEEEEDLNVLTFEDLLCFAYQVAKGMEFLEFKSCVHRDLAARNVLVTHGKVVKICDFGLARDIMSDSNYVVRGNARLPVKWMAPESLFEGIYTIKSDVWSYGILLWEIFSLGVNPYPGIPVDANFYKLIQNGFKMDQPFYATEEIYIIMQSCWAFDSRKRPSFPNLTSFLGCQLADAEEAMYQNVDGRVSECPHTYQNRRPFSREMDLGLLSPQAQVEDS
Method in brief: (§1)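 AlphaScreen proximity signal at 580 nm, from PY20 acceptor and streptavidin donor beads, measures tyrosine phosphorylation of 30 nM biotin-poly(Glu4-Tyr) peptide by recombinant kinase. ATP: 10 μM (FLT3 mutants), 100 μM (c-KIT). IC50 from loss of signal.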

FLT3-D835Y = target: T2, FLT3-D835Y (Homo sapiens, UniProt P36888, D835Y); test: FLT3-D835Y recombinant enzyme kinase assay (AlphaScreen); assay type: biochemical; conditions: 8 pt, GMean
T2 construct: purchased Invitrogen PV3967
T2 sequence (P36888 27-993 D835Y): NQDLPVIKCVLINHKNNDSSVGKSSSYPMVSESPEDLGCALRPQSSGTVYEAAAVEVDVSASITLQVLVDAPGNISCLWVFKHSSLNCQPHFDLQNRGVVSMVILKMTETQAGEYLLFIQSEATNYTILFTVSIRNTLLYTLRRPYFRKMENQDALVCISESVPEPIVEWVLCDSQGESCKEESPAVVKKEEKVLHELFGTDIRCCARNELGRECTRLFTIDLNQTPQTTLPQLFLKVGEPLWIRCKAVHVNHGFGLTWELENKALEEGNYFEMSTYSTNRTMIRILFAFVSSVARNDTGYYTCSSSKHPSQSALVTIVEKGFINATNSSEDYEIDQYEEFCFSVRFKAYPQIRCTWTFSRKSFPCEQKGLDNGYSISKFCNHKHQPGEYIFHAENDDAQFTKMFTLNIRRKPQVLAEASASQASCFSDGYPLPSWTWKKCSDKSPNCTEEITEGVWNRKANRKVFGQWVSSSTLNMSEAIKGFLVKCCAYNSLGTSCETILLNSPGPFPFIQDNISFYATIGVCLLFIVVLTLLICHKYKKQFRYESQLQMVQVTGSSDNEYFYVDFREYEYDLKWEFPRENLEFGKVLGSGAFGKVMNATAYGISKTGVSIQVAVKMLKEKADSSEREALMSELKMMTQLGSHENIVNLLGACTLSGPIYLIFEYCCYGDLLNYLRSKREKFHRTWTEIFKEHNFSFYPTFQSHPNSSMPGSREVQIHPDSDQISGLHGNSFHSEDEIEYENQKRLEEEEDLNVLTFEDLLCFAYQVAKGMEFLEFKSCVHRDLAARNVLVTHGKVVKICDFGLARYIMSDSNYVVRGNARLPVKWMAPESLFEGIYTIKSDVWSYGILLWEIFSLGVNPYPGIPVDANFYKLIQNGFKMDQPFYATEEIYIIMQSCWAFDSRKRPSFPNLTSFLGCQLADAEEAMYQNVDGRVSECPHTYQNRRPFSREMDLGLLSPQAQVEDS
Method in brief: as §1

| Structure (SMILES) | IC50 (FLT3-ITD) [µM] | IC50 (FLT3-D835Y) [µM] |
| --- | --- | --- |
| Cn1cc(Nc2ncc(-c3ccc(CC(=O)NCc4cncc(C(F)(F)F)c4)cc3)cn2)cn1 [Compound P-0161, 2-[4-[2-[(1-methylpyrazol-4-yl)amino]pyrimidin-5-yl]phenyl]-N-[[5-(trifluoromethyl)-3-pyridyl]methyl]acetamide] | 0.0001 to 10 | 0.0001 to 10 |
| Cn1cc(Nc2ncc(-c3ccc(CC(=O)Nc4cc(Cl)c(C5CC5)cn4)cc3)cn2)cn1 [Compound P-0164, N-(4-chloro-5-cyclopropyl-2-pyridyl)-2-[4-[2-[(1-methylpyrazol-4-yl)amino]pyrimidin-5-yl]phenyl]acetamide] | 0.0001 to 10 | 0.0001 to 10 |
| CCn1cc(Nc2ncc(-c3ccc(CC(=O)Nc4cnc(Cl)c(C(F)(F)F)c4)cc3)cn2)cn1 [Compound P-0165, N-[6-chloro-5-(trifluoromethyl)-3-pyridyl]-2-[4-[2-[(1-ethylpyrazol-4-yl)amino]pyrimidin-5-yl]phenyl]acetamide] | 0.0001 to 10 | 0.0001 to 10 |
| CCn1cc(Nc2ncc(-c3ccc(CC(=O)Nc4cncc(C(F)(F)F)c4)cc3)cn2)cn1 [Compound P-0166, 2-[4-[2-[(1-ethylpyrazol-4-yl)amino]pyrimidin-5-yl]phenyl]-N-[5-(trifluoromethyl)-3-pyridyl]acetamide] | 0.0001 to 10 | 0.0001 to 10 |
| Cn1cnc(Nc2ncc(-c3ccc(CC(=O)Nc4cncc(C(F)(F)F)c4)cc3)cn2)c1 [Compound P-0167] | 0.0001 to 10 | 0.0001 to 10 |
| Cn1cnc(Nc2ncc(-c3ccc(CC(=O)Nc4cnc(F)c(C(C)(F)F)c4)cc3)cn2)c1 [Compound P-0168, N-[5-(1,1-difluoroethyl)-6-fluoro-3-pyridyl]-2-[4-[2-[(1-methylimidazol-4-yl)amino]pyrimidin-5-yl]phenyl]acetamide] | 0.0001 to 10 | 0.0001 to 10 |
| Cn1cnc(Nc2ncc(-c3ccc(CC(=O)Nc4cc(C(C)(F)F)ccn4)cc3)cn2)c1 [Compound P-0169, N-[4-(1,1-difluoroethyl)-2-pyridyl]-2-[4-[2-[(1-methylimidazol-4-yl)amino]pyrimidin-5-yl]phenyl]acetamide] | 0.0001 to 10 | 0.0001 to 10 |
| Cn1cnc(Nc2ncc(-c3ccc(CC(=O)Nc4cnc(F)c(C(C)(F)F)c4)cc3F)cn2)c1 [Compound P-0170, N-[5-(1,1-difluoroethyl)-6-fluoro-3-pyridyl]-2-[3-fluoro-4-[2-[(1-methylimidazol-4-yl)amino]pyrimidin-5-yl]phenyl]acetamide] | 0.0001 to 10 | 0.0001 to 10 |
| Cc1ncc(NC(=O)Cc2ccc(-c3cnc4[nH]nc(C)c4c3)c(F)c2)cc1C(F)(F)F [Compound P-0172, 2-[3-fluoro-4-(3-methyl-1H-pyrazolo[3,4-b]pyridin-5-yl)phenyl]-N-[6-methyl-5-(trifluoromethyl)-3-pyridyl]acetamide] | 0.0001 to 10 | 0.0001 to 10 |
| Cc1n[nH]c2ncc(-c3cc(F)c(CC(=O)Nc4cncc(C(F)(F)F)c4)cc3F)cc12 [Compound P-0173, 2-[2,5-difluoro-4-(3-methyl-1H-pyrazolo[3,4-b]pyridin-5-yl)phenyl]-N-[5-(trifluoromethyl)-3-pyridyl]acetamide] | 0.0001 to 10 | 0.0001 to 10 |
| COc1ncc(NC(=O)Cc2ccc(-c3cnc4[nH]nc(C)c4c3)c(F)c2)cc1C(F)(F)F [Compound P-0174, 2-[3-fluoro-4-(3-methyl-1H-pyrazolo[3,4-b]pyridin-5-yl)phenyl]-N-[6-methoxy-5-(trifluoromethyl)-3-pyridyl]acetamide] | 0.0001 to 10 | 0.0001 to 10 |
| Cc1ncc(NC(=O)Cc2cc(F)c(-c3cnc4[nH]nc(C)c4c3)cc2F)cc1C(F)(F)F [Compound P-0175, 2-(2,5-difluoro-4-(3-methyl-1H-pyrazolo[3,4-b]pyridin-5-yl)phenyl)-N-(6-methyl-5-(trifluoromethyl)pyridin-3-yl)acetamide] | 0.0001 to 10 | 0.0001 to 10 |
